Test results published in paper PMC10146949, “Cytotoxicity Profiles and Neuroprotective Properties of the Novel Ifenprodil Analogues as Sigma Ligands” (Molecules, 2023).
Values after ≈ are worked out from the molar mass of the structure shown. Where two headings read alike, the source gives them in different places.

Experiments:
[1] = biological target: T1, S1R (Cavia porcellus, UniProt Q60492); test: S1R radioligand binding assay, [3H](+)-pentazocine, guinea pig brain cortex homogenates; details: for S2R/S1R selectivity ratio: ratio of Ki S2R to Ki S1R
T1 construct: Fresh guinea pig brain cortex was homogenized in ice-cold Tris (50 mM, pH 7.4); tissue ENVIGO RMS S.R.L., Udine, Italy (animals); host or cells: male Dunkin-Hartley guinea pig brain cortex membranes
T1 sequence (Q60492 whole entry): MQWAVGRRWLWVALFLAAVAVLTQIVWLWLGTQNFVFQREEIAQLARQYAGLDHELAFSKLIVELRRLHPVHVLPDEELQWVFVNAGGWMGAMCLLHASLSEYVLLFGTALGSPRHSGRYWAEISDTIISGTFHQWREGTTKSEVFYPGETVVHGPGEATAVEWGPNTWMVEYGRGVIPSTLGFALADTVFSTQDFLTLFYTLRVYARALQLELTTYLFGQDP
Procedure: The bound radioactivity has been determined using a Beckman LS 6500 liquid scintillation counter (Beckman Coulter, Brea, CA, USA).
The test compound solutions were prepared by dissolving approximately 10 µmol of the test compound in DMSO to obtain a 10 mM stock solution.
Fresh guinea pig brain cortex was homogenized in ice-cold Tris (50 mM, pH 7.4) containing cold 0.32 M sucrose with a Potter-Elvehjem glass homogenizer. […] The final pellet was resuspended in ice-cold Tris buffer, and frozen at −80 °C. The protein concentration was determined by the method of Bradford [42].
Bound and free radioligand were separated by fast filtration under reduced pressure using a Millipore filter apparatus through Whatman GF 6 glass fiber filters, which were presoaked in a 0.5% poly(ethyleneimine) water solution for 120 min. Each filter paper was rinsed three times with 3 mL of ice-cold Tris buffer (50 mM, pH 7.4), dried at room temperature, and incubated overnight with 3 mL of Ultima Gold MV Scintillation cocktail into pony vials.
The Ki-values were calculated with the program GraphPad Prism® 6.0 (GraphPad Software, San Diego, CA, USA). The Ki-values are given as the mean value ± SD from at least two independent experiments performed in duplicate.

[2] = biological target: T2, S2R (Rattus norvegicus, UniProt Q5U3Y7); test: S2R radioligand binding assay, [3H]DTG, rat liver membranes
T2 construct: A few rat livers were homogenized in cold 0.32 M sucrose with a Potter-Elvehjem glass homogenizer; tissue ENVIGO RMS S.R.L., Udine, Italy (animals); host or cells: Sprague Dawley rat liver membranes
T2 sequence (Q5U3Y7 1-176): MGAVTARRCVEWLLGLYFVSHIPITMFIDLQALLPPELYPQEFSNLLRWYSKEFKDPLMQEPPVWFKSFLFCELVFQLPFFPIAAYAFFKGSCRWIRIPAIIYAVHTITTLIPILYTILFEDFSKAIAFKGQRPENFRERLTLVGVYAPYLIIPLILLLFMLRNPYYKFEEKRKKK

[3] = Cytotoxicity, resazurin cell viability test; format: cell-based, human; details: human
Procedure: (§1) Cell viability was tested by using Resazurin (SERVA Electrophoresis GmbH, Heidelberg, Germany), which in metabolically active cells is reduced to Resufurin, a redox indicator, whose fluorescence is proportional to the number of live cells [43, 44].
(§2) The percentage of viability was calculated after subtraction of the background (obtained by killing the cells), on the basis of the ratio between the fluorescence values of the cells incubated with a compound and the fluorescence values of cells incubated with the solvent (1% DMSO). The viability of cells incubated with 1% DMSO was considered to be equivalent to 100%.
(§3) The statistical analysis was carried out with GraphPad Prism® 6.0 (GraphPad Software, Inc, La Jolla, CA, USA) software using an unpaired t-test. p < 0.05 was considered statistically significant. Cytotoxicity concentrations (IC50s) were determined from dose-response curves analyzed by using GraphPad Prism software.

[4] = ABTS radical scavenging; details: ABTS 7 mM ethanolic, 45 min, 735 nm
Procedure: The compounds’ antioxidant capacity was evaluated by bleaching the green colored ethanolic solution of ABTS [41]. Test compounds (300 μL) were diluted as follows: 0.01, 0.025, 0.05, 0.1, and 0.2 mg/mL and added to 2.7 mL of ethanolic solution of ABTS (7 mM). These mixtures were incubated for 45 min at room temperature, and the absorbances were recorded at λ = 735 nm against the ABTS solution. The results were obtained as the percent of inhibition (% IC) of ABTS radical, calculated by the following formula. % IC = [(Abs ABTS − Abs Sample)/Abs ABTS] × 100
Data were expressed as mean value ± SD, and the assay was performed in triplicate.
The % IC was used to determine the IC50 values.

[5] = Hydrogen peroxide scavenging; details: H2O2 2 mM, 230 nm
[6] = tested on: SOD1 gene expression in SH-SY5Y cells; test: Real-Time PCR of SOD1 mRNA levels; details: 12.5 µM, 12 h; for effect on SOD1 expression (in words): vs DMSO
Procedure: (§4) Total RNA (500 ng) was primed with hexameric random primers and retrotranscribed into cDNA with M-MLV reverse transcriptase (Thermo Fisher Scientific, Waltham, MA, USA). The normalization of targets’ gene expression was performed against the housekeeping gene RPL13A. Real-Time PCRs were performed by using iQ SYBR Green Supermix and CFX96 Real-Time PCR detection system (Bio-Rad Laboratories, Redmond, WA, USA). The relative expression levels were calculated using the 2^−∆∆CT method. An unpaired T-test was used to determine statistical significance. Values are presented as mean and error bars indicate standard errors (SE). The results are representative of two independent experiments in triplicate.

[7] = tested on: NRF2 gene expression in SH-SY5Y cells; test: Real-Time PCR of NRF2 mRNA levels; details: 12.5 µM, 12 h; for effect on NRF2 expression (in words): vs DMSO
Procedure: as §4

[8] = biological target: S1R; details: cited from earlier work
[9] = tested on: S1R; test: S1R affinity taken from the literature; format: binding; details: ifenprodil, from literature Ki values
Description: Table 2 Binding affinities towards S1R and S2R, for compounds 5a–o.

[10] = biological target: S2R; parameters: method as in PMID 31319263; details: ifenprodil, Table 2 footnote b; cited from earlier work
[11] = tested on: SH-SY5Y cells; test: Cytotoxicity, resazurin cell viability test; format: cell-based, human
Procedure: as §1, §2, §3

| Compound | Ki [1] | S2R/S1R selectivity ratio [1] | Ki ([2]; read-out: Ki S2R) | Ki ([1]; read-out: Ki S1R) | IC50 H2O2 [5] | other results |
| --- | --- | --- | --- | --- | --- | --- |
| CC(C(=O)c1ccccc1)N1CCCN(Cc2ccccc2)CC1 (stereo not drawn) [5a, 2-(4-Benzyl-1,4-diazepan-1-yl)-1-phenylpropan-1-one] | 69 ± 14 nM | 1.6 | 108 ± 21 nM | – | – | – |
| CC(C(=O)c1ccccc1)N1CCN(c2ccccc2)CC1 (stereo not drawn) [5b, 2-(4-Phenylpiperazin-1-yl)-1-phenylpropan-1-one] | – | 0.05 | 158 ± 30 nM | 2930 ± 1150 nM | – | melting point: 105 to 106 °C |
| CC(C(=O)c1ccccc1)N(C)CCCCc1ccccc1 (stereo not drawn) [5c, 2-(Methyl(4-phenylbutyl)amino)-1-phenylpropan-1-one] | – | 0.15 | 733 ± 106 nM | 4720 ± 1690 nM | – | – |
| CC(C(=O)c1ccccc1)N1CCN(Cc2ccccc2)CC1 (stereo not drawn) [5d, 2-(4-Benzylpiperazin-1-yl)-1-phenylpropan-1-one] | 8 ± 1 nM | 38 | 302 ± 65 nM | – | 14.56 ± 0.18 µg/mL (≈ 47.2 µM) | IC50 ([3]; SH-SY5Y cells): 118000 nM; IC50 ABTS [4]: 2.854 ± 0.11 µg/mL (≈ 9.25 µM); SOD1 mRNA levels, fold increase compared to DMSO [6]: 1.3 fold; NRF2 mRNA levels, fold increase compared to DMSO [7]: 1.7 fold |
| COc1ccc(C(=O)C(C)N2CCCN(Cc3ccccc3)CC2)cc1 (stereo not drawn) [5e, 2-(4-Benzyl-1,4-diazepan-1-yl)-1-(4-methoxyphenyl)propan-1-one] | 12 ± 2 nM | 8.1 | – | – | 12.65 ± 0.21 µg/mL (≈ 35.9 µM) | Ki [2]: 97 ± 17 nM; IC50 ([3]; SH-SY5Y cells): 74000 nM; IC50 ABTS [4]: 2.495 ± 0.09 µg/mL (≈ 7.08 µM); effect on SOD1 expression (in words) [6]: did not significantly alter; effect on NRF2 expression (in words) [7]: did not change its expression significantly |
| COc1ccc(C(=O)C(C)N2CCN(c3ccccc3)CC2)cc1 (stereo not drawn) [5f, 2-(4-Phenylpiperazin-1-yl)-1-(4-methoxyphenyl)propan-1-one] | – | 0.53 | 989 ± 337 nM | 1860 ± 987 nM | – | melting point: 117 to 119 °C |
| COc1ccc(C(=O)C(C)N(C)CCCCc2ccccc2)cc1 (stereo not drawn) [5g, 1-(4-Methoxyphenyl)-2-(methyl(4-phenylbutyl)amino)propan-1-one] | – | 3.3 | 386 ± 110 nM | 117 ± 18 nM | – | – |
| COc1ccc(C(=O)C(C)N2CCN(Cc3ccccc3)CC2)cc1 (stereo not drawn) [5h, 2-(4-Benzylpiperazin-1-yl)-1-(4-methoxyphenyl)propan-1-one] | 1.4 ± 0.2 nM | – | – | – | 466.24 ± 1.36 µg/mL (≈ 1380 µM) | Ki [2]: 84 ± 31 nM; IC50 ([3]; SH-SY5Y cells): 117000 nM; effect on SOD1 expression (in words) [6]: dramatically reduced; effect on NRF2 expression (in words) [7]: significant decrease |
| CC(C(=O)c1ccc(O)cc1)N1CCCN(Cc2ccccc2)CC1 (stereo not drawn) [5i, 2-(4-Benzyl-1,4-diazepan-1-yl)-1-(4-hydroxyphenyl)propan-1-one] | 19 ± 3 nM | 1.1 | – | – | 13.11 ± 0.24 µg/mL (≈ 38.7 µM) | Ki [2]: 22 ± 4 nM; IC50 ([3]; SH-SY5Y cells): 294000 nM; IC50 ABTS [4]: 2.603 ± 0.09 µg/mL (≈ 7.69 µM); effect on SOD1 expression (in words) [6]: did not significantly alter; NRF2 mRNA levels, fold increase compared to DMSO [7]: 2.8 fold |
| CC(C(=O)c1ccc(O)cc1)N(C)CCCCc1ccccc1 (stereo not drawn) [5j, 1-(4-Hydroxyphenyl)-2-(methyl(4-phenylbutyl)amino)propan-1-one] | – | 0.38 | – | 121 ± 22 nM | – | Ki [2]: 45 ± 4 nM |
| CC(C(=O)c1ccc(O)cc1)N1CCN(Cc2ccccc2)CC1 (stereo not drawn) [5k, 2-(4-Benzylpiperazin-1-yl)-1-(4-hydroxyphenyl)propan-1-one] | 19 ± 2 nM | 6.8 | 129 ± 23 nM | – | 436.43 ± 1.17 µg/mL (≈ 1350 µM) | IC50 ([3]; SH-SY5Y cells): 132000 nM; melting point: 58 to 59 °C; effect on SOD1 expression (in words) [6]: dramatically reduced; effect on NRF2 expression (in words) [7]: significant decrease |
| CC(C(=O)c1ccc(O)cc1)N1CCN(c2ccccc2)CC1 (stereo not drawn) [5l, 2-(4-Phenylpiperazin-1-yl)-1-(4-hydroxyphenyl)propan-1-one] | – | 0.18 | 147 ± 17 nM | 785 ± 226 nM | – | melting point: 163 to 165 °C |
| CC(C(O)c1ccccc1)N(C)CCCCc1ccccc1 (stereo not drawn) [5m, 2-(Methyl(4-phenylbutyl)amino)-1-phenylpropan-1-ol] | 37 ± 10 nM | 0.81 | – | – | – | Ki [2]: 30 ± 8 nM |
| COc1ccc(C(O)C(C)N(C)CCCCc2ccccc2)cc1 (stereo not drawn) [5n, 1-(4-Methoxyphenyl)-2-(methyl(4-phenylbutyl)amino)propan-1-ol] | 38 ± 9 nM | 13 | 479 ± 93 nM | – | – | – |
| COc1ccc(C(O)C(C)N2CCCN(Cc3ccccc3)CC2)cc1 (stereo not drawn) [5o, 2-(4-Benzyl-1,4-diazepan-1-yl)-1-(4-methoxyphenyl)propan-1-ol] | – | 32 | 128 ± 26 nM | 4.2 ± 0.6 nM | 12.13 ± 0.25 µg/mL (≈ 34.2 µM) | IC50 ([3]; SH-SY5Y neuroblastoma cells): 118000 nM; IC50 ABTS [4]: 2.481 ± 0.05 µg/mL (≈ 7 µM); effect on SOD1 expression (in words) [6]: dramatically reduced; effect on NRF2 expression (in words) [7]: significant decrease |
| COc1cc2c(cc1OC)C(=O)C(CC1CCN(Cc3ccccc3)CC1)C2 (stereo not drawn) [Donepezil] | – | – | – | – | – | Ki ([8]; donepezil): 14.6 nM |
| O=C(CCCN1CCC(O)(c2ccc(Cl)cc2)CC1)c1ccc(F)cc1 [Haloperidol, reference compound] | – | – | – | – | – | IC50 ([3]; SH-SY5Y neuroblastoma cells): 23000 nM; effect on SOD1 expression (in words) [6]: did not cause significant changes; effect on NRF2 expression (in words) [7]: did not cause significant changes |
| CC(C(O)c1ccc(O)cc1)N1CCC(Cc2ccccc2)CC1 (stereo not drawn) [Ifenprodil] | – | – | – | – | – | S2R/S1R selectivity ratio [9]: 0.75; Ki ([8]; ifenprodil, Table 2 footnote b): 125 ± 24 nM; Ki [10]: 98 ± 34 nM |
| CCCN(CCC)CCc1ccc(OC)c(OCCc2ccccc2)c1 [NE100, reference compound] | – | – | – | – | – | IC50 [11]: 49000 nM |
| Fc1ccc(-n2cc(CCCCN3CCC4(CC3)OCc3ccccc34)c3ccccc32)cc1 [Siramesine, reference compound] | – | – | – | – | – | IC50 ([3]; SH-SY5Y neuroblastoma cells): 2000 nM |
| Cc1c(C)c2c(c(C)c1O)CCC(C)(C(=O)O)O2 (stereo not drawn) [Trolox, 6-hydroxy-2,5,7,8-tetramethylchroman-2-carboxylic acid, reference compound] | – | – | – | – | 15.69 ± 0.69 µg/mL (≈ 62.7 µM) | IC50 ABTS [4]: 2.365 ± 0.19 µg/mL (≈ 9.45 µM) |
